The values below come from PMC5740388, “In Vitro Antibacterial Properties of Cefiderocol, a Novel Siderophore Cephalosporin, against Gram-Negative Bacteria” (Antimicrobial Agents and Chemotherapy, 2017).

≈ marks a conversion by molar mass, not a printed value. Where two headings read alike, the source gives them in different places. Some results are limits rather than exact numbers.

The test system of test [1] is T1, PBP1a and PBP1b of A. baumannii ATCC 17978 (not separated).
T1 construct: gene ponA; one joint IC50 for PBP1a and PBP1b
Nature of the test: competition with Bocillin FL for PBPs. Format: binding, Acinetobacter baumannii. To be noted: covalent; joint value for PBP1a and PBP1b. An excerpt:
competition with Bocillin FL for PBPs on PBP1a and PBP1b of A. baumannii ATCC 17978 (not separated)

For test [2], the target named is T2, PBP4 of K. pneumoniae SR22291 (Klebsiella pneumoniae, UniProt A6TEK1).
T2 construct: gene dacB
T2 sequence (A6TEK1 21-477): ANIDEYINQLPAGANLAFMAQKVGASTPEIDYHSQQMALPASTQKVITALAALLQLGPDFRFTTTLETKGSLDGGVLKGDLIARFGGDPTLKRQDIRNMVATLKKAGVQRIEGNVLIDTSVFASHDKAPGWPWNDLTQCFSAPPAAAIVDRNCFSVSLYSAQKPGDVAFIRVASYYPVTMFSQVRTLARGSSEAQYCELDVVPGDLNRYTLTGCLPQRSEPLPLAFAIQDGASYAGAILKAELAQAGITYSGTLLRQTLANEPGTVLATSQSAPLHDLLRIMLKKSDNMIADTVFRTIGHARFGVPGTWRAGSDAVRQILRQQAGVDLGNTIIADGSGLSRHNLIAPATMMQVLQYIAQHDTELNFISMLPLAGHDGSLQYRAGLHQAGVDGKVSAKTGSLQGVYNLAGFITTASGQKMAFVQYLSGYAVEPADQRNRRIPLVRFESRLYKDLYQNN
Kind of test: competition with […]benzylpenicillin for PBPs. The settings on record: covalent. Format: binding.

The target of test [3] is T3, PBP2 of A. baumannii ATCC 17978 (Acinetobacter baumannii, UniProt D0C8Z9).
T3 construct: gene mrdA
T3 sequence (D0C8Z9 1-672): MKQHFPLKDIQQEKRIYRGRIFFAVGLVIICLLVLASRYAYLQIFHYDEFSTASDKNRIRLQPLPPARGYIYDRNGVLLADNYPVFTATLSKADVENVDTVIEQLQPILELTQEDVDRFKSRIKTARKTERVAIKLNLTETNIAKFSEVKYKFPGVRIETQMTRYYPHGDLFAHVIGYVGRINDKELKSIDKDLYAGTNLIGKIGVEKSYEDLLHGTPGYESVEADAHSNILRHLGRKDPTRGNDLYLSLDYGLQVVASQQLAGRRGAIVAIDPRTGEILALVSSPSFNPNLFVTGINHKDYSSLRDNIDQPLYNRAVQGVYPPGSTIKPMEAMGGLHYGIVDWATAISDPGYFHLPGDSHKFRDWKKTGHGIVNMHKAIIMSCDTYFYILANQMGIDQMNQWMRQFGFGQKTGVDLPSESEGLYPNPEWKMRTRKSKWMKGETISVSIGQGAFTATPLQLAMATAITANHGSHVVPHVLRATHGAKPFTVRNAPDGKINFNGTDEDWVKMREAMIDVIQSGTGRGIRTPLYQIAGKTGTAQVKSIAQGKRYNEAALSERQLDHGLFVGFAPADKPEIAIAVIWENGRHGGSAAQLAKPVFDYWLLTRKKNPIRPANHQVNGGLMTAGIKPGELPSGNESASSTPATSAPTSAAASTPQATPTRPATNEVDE
Nature of the test: competition with Bocillin FL for PBPs. Format: binding. To be noted: covalent. An excerpt: competition with Bocillin FL for PBPs on PBP2 of A. baumannii ATCC 17978

In test [4] the target is T4, PBP2 of P. aeruginosa ATCC 27853 (Pseudomonas aeruginosa, UniProt Q9X6V3).
T4 construct: gene pbpA
T4 sequence (Q9X6V3 1-646): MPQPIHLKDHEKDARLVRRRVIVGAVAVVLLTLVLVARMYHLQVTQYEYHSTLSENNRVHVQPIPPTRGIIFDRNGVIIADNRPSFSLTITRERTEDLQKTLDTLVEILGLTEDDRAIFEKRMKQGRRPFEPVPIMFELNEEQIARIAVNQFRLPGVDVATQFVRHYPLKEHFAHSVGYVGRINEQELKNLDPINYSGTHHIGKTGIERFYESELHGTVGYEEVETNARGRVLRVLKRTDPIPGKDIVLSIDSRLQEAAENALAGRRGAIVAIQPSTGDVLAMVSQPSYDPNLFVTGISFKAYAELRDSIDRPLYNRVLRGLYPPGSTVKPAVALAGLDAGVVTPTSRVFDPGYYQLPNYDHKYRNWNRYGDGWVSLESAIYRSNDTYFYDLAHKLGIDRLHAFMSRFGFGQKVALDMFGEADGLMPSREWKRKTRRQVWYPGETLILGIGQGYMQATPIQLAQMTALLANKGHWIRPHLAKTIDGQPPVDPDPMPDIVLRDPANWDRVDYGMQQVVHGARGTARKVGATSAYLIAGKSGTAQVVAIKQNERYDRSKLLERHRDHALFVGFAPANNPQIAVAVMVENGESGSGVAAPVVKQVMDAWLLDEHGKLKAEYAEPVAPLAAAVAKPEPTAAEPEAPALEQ
Kind of test: competition with […]benzylpenicillin for PBPs. Format: binding. To be noted: covalent; read-out: IC50 (μg/ml) / E. coli NIHJ JC-2 / Ceftazidime.

For test [5], the target named is T5, PBP3 of P. aeruginosa ATCC 27853 (Pseudomonas aeruginosa, UniProt G3XD46).
T5 construct: gene ftsI
Nature of the test: competition with […]benzylpenicillin for PBPs. The settings on record: covalent. Format: binding.

Test [6] addresses T6, PBP3 of A. baumannii ATCC 17978 (Acinetobacter baumannii, UniProt A0ABX6CK25).
T6 construct: gene ftsI
T6 sequence (A0ABX6CK25 1-610): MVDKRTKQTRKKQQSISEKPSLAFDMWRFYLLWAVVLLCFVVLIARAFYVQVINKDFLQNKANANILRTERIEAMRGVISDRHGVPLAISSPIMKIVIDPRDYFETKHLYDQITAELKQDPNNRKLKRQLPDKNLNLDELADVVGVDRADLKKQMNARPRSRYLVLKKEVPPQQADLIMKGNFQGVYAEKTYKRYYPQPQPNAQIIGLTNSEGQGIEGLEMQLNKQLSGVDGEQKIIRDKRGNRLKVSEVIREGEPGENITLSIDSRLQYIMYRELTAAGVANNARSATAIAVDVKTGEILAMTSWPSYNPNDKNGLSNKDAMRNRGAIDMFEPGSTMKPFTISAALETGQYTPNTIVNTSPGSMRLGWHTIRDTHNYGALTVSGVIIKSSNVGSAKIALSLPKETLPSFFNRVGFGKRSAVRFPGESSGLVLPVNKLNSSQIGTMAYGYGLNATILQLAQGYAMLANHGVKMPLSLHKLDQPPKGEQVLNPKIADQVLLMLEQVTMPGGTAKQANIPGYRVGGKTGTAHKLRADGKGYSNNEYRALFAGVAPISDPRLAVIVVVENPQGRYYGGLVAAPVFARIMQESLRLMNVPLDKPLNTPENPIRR
Nature of the test: competition with Bocillin FL for PBPs. To be noted: covalent. Format: binding. An excerpt:
competition with Bocillin FL for PBPs on PBP3 of A. baumannii ATCC 17978

The mark [7] stands for this setting: read-out: IC50 (μg/ml) / A. baumannii ATCC 17978 ^a / Cefiderocol (converted).

T5 sequence (G3XD46 whole entry): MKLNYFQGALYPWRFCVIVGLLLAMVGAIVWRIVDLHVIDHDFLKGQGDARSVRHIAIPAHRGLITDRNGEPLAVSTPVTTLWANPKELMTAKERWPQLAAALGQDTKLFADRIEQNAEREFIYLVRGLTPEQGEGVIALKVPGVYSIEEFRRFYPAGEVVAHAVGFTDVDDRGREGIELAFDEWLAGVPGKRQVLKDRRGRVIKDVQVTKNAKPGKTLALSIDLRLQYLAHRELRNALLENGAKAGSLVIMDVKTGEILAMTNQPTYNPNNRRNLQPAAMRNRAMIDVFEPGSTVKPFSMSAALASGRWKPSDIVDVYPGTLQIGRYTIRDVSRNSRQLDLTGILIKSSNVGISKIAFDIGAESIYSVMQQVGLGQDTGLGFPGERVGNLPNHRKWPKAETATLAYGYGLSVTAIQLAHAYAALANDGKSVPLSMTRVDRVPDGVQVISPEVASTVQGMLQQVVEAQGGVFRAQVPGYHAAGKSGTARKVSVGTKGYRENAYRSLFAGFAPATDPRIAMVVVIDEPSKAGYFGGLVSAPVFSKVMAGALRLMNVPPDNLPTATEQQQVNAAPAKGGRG

Consider `CC(C)(O/N=C(\C(=O)N[C@@H]1C(=O)N2C(C(=O)[O-])=C(C[N+]3(CCNC(=O)c4ccc(O)c(O)c4Cl)CCCC3)CS[C@H]12)c1csc(N)n1)C(=O)O` [cefiderocol], for which the “IC50 (μg/ml) / A. baumannii ATCC 17978 ^a / Cefiderocol” value in test [1] was found to be 1.05 µg/mL (≈ 1.4 µM). Besides, the IC50 in test [2] (read-out: IC50 (μg/ml) / K. pneumoniae SR22291 / Cefiderocol (converted)) is 0.372 µM; in test [3] (setting [7]) it was 3.07 µM; in test [4] it was above 5.32 µM; in test [5] (read-out: IC50 (μg/ml) / / Cefiderocol (converted)), 79.8 nM; in test [6] (setting [7]), 891 nM.

Turning to `CC(C)(O/N=C(\C(=O)N[C@@H]1C(=O)N2C(C(=O)[O-])=C(C[n+]3ccccc3)CS[C@H]12)c1csc(N)n1)C(=O)O` [ceftazidime], the “IC50 (μg/ml) / A. baumannii ATCC 17978 ^a / Ceftazidime” value in test [1] stood at 0.91 µg/mL (≈ 1.66 µM). For the same compound, the IC50 is 6.59 µM in test [2] (read-out: IC50 (μg/ml) / K. pneumoniae SR22291 / Ceftazidime (converted)); above 117 µM in test [3] (read-out: IC50 (μg/ml) / A. baumannii ATCC 17978 ^a / Ceftazidime); above 7.32 µM in test [4]; 165 nM in test [5] (read-out: IC50 (μg/ml) / P. aeruginosa ATCC 27853 / Ceftazidime (converted)); 3260 nM in test [6] (read-out: IC50 (μg/ml) / A. baumannii ATCC 17978 ^a / Ceftazidime (converted)).
